Experimental data from patent US6436992B1, “Use of fumaric acid derivatives” (Fumapharm AG, priority 1997, dated 2002).

Tested on: haemagglutinin formation in mice
Test: Inhibition of haemagglutinin formation in mice immunised with sheep erythrocytes, after peroral administration
Format: in vivo
[1] = mice, 150 mg/kg bodyweight p.o.
[2] = mice, 300 mg/kg bodyweight p.o.
[3] = mice, 600 mg/kg bodyweight p.o.

COC(=O)/C=C/C(=O)[O-].[Ca+] [Methyl hydrogen fumarate-Ca salt]
Inhibition of haemagglutinin formation in % [1]: 13%
Suppression index [1]: 0.87
Inhibition of haemagglutinin formation in % [2]: 20%
Suppression index [2]: 0.80
effect on haemagglutinin formation (in words) (mice, 300 mg/kg p.o.): slight reduction
Inhibition of haemagglutinin formation in % [3]: 38%
Suppression index [3]: 0.62
suppressive effect on haemagglutinin formation (in words, over dose range) (mice, 150, 300 and 600 mg/kg p.o.): dosage-dependent suppressive effect
immuno-suppressive effect (conclusion) (mice, p.o.): significant immuno-suppressive effect
